{"source": "patent US7485434B2", "about": "“Method for screening compounds for those that modulate transducers of regulated CREB activity” (The Salk Institute for Biological Studies, priority 2005, dated 2009)", "key": {"β cell": {"test_system": "β cell", "details": "organ transplant recipients receiving chronic immunosuppressive therapy; cited from earlier work"}, "[1]": {"test_system": "gluconeogenic genes (PEPCK, PGC-1α, G6Pase)", "assay": "Q-PCR of gluconeogenic gene expression in primary rat hepatocytes", "type": "cell-based", "details": "primary rat hepatocytes exposed to glucagon; CHX pre-treatment", "protocol": "Specifically, FIG. 17A illustrates the effect of TORC2 on induction of gluconeogenic genes (PEPCK, PGC-1α, G6Pase) by FSK (10 μM, 2 hr) in cultured primary rat hepatocytes infected with TORC2 or control GFP adenovinus as indicated.\nFIGS. 18A-18H illustrate that the induction of the AMP kinase family member SIK1 by CREB during fasting attenuates the gluconeogenic program. Specifically, FIG. 18A illustrates the time course of PEPCK gene expression in primary rat hepatocytes following exposure to FSK. mRNA levels were determined by Q-PCR analysis.\nFIG. 18C illustrates the effect of CHX pretreatment on induction of gluconeogenic genes (PEPCK, PGC-1α, G6Pase) by glucagon in primary rat hepatocytes. Relative mRNA levels are shown.\nFIG. 19B summarizes the effect of SIK1 RNAi on gluconeogenic gene expression in primary rat hepatocytes, presenting Q-PCR analysis showing the relative induction of PEPCK, PGC-1α, and G6Pase mRNAs by glucagon in cells infected with control (US) or SIK1 RNAi expressing adenoviruses.\nFIG. 20D summarizes the effect of AlCAR on expression of gluconeogenic genes (PEPCK, PGC-1α) in primary rat hepatocytes. Cells infected with mutant Ser171Ala TORC2 (171) adenovinus indicated. Treatment with AICAR and FSK is shown.\nRat primary hepatocytes were prepared from 200-300g of Sprague-Dawley rats by collagenase perfusion method as described previously (see Koo et al., 2004). […]"}, "TORC2 [2]": {"test_system": "TORC2", "assay": "TORC2 phosphorylation in primary rat hepatocytes (Western blot)", "type": "cell-based", "details": "primary rat hepatocytes", "from_the_text": "FIG. 18B illustrates the effect of CHX on levels of phospho (Ser171) TORC2 in primary rat hepatocytes treated with glucagon over a variety of time points, shown in hours. Western blot assay indicates the levels of TORC2, phospho (Ser171) TORC2 and CREB.\nSpecifically, FIG. 19A, top, presents a Western blot showing the effect of US and SIK1 RNAi adenoviruses on the levels of SIK1 protein in rat hepatocytes. FIG. 19A, bottom, presents a Western blot assay with nondiscriminating TORC2 antiserum, showing the effect of SIK1 RNAi adenovirus on TORC2 dephosphorylation (compare P-TORC2 and TORC2 bands) following exposure of primary rat hepatocytes to glucagon (Gluc). The arrow identifies phosphorylated TORC2.\nCells were exposed to AICAR and FSK for 30 minutes. Lower mobility bands (arrow) indicate phosphorylated TORC2 polypeptides.\nRat primary hepatocytes were prepared from 200-300g of Sprague-Dawley rats by collagenase perfusion method as described previously (see Koo et al., 2004). 1×10^6 cells were plated in 6 well plates with medium 199 (Invitrogen, Carlsbad, Calif.) supplemented by 10% FBS, 10 units/ml penicillin, 10 μg/ml streptomycin, and 10 nM dexamethasone for 3-6 hours. After attachment, cells were infected with adenoviruses for 16 hours. Subsequently, cells were maintained in medium 199 without FBS and dexamethasone for 24 hours (for cDNA expression adenoviruses) or 48 hours (for RNAi adenoviruses) and […] forskolin or 100 nM glucagon for 2 hours unless noted otherwise. For experiments with cycloheximide, 10 μg/ml cycloheximide was added 30 minutes prior to the addition of 100 nM glucagon.\nLike other signaling pathways, cAMP stimulates gluconeogenic gene expression with burst-attenuation kinetics (see Sasaki et al., 1984). Following exposure of primary hepatocytes to Forskolin, PEPCK mRNA levels became maximal after 2 hours, returning to near baseline after 4 hours (see FIG. 18A). […] Consistent with this, CHX pre-treatment potentiated gluconeogenic gene expression in primary rat hepatocytes exposed to glucagon 2-3 fold (see FIG. 18C). […]"}, "CREB target gene NR4A2": {"test_system": "CREB target gene NR4A2", "assay": "Quantitative PCR of CREB target gene NR4A2 in MIN6 insulinoma cells", "type": "cell-based", "protocol": "FIG. 1B presents quantitative PCR (Q-PCR) analysis of the CREB target gene NR4A2 in MIN6 insulinoma cells exposed to glucose (20 mM) and/or exendin-4 (10 nM).\nCells were treated with cAMP agonist (Forskolin, 10 μM) and KCl (45 mM) or vehicle control. For glucose experiments, MIN6 cells were starved overnight in DME containing 2.75 mM glucose plus 16 mM mannitol and 10% FBS. The next day the medium was changed for the indicated times+inhibitor. Total RNA from treated MIN6 or HIT cells was extracted using an RNeasy mini-kit (Qiagen, Valencia, Calif.). 500 ng-1 μg of total RNA was used for generating cDNA with Superscript II enzyme (Invitrogen, Carlsbad, Calif.). cDNAs were analyzed by quantitative PCR using SYBR green PCR kit and an ABIPRISM 7700 Sequence detector (Perkin Elmer, Foster City, Calif.). All PCR data for CREB target NR4A2 (Conkright et al., 2003b) was normalized to ribosomal L32 or 36B4 expression in the corresponding sample.\nHamster insulinoma (HIT) cells were employed to test the relative effects of cAMP and calcium signals on CREB activity. Opening of voltage-sensitive L-type calcium channels in response to KC1 depolarization induced the CREB-dependent EVX-1 promoter (Conknight et al., 2003b) 5-fold in HIT cells, whereas addition of cAMP agonist stimulated the reporter 10-fold (see FIG. 1A). […]"}, "TORC2 [3]": {"test_system": "TORC2", "assay": "Immunofluorescence of TORC localization in ATYB1 fibroblasts", "type": "cell-based, human", "details": "ATYB1 cells", "protocol": "Specifically, FIG. 3A presents fluorescence microscopic analysis of Flag-tagged TORC2 in human ATYBI fibroblasts treated with forskolin (10 μM) or control vehicle for 30 minutes as indicated.\nFIG. 3B illustrates the effect of exportin inhibitor leptomycin B (LMB) on nuclear targeting of TORC2 in transfected ATYB1 fibroblasts. DAPI staining is shown alongside to indicate nuclei.\nFIG. 7C, top panels, illustrate the effect of SIK2 (or related family members) on TORC2 subcellular localization. Immunofluorescence microscopy is presented for ATYB1 cells transfected with Flagtagged TORC2 plus wild-type or PKA phosphorylation defective SIK2 (Ser587Ala) as indicated. DAP1 staining is shown below each panel. FIG. 7C, bottom panels, illustrate the effect of Ser171 Ala mutagenesis on cellular localization of TORC2. Treatment with forskolin is indicated.\nFIG. 13, top panels, illustrates the cellular localization of endogenous TORC proteins in ATYBI cells using TORC specific antiserum. The effect of forskolin (10 μM, 30 minutes) and leptomycin B (LMB, 10 ng/ml, 2 hr) treatment is shown. DAP1 staining is shown below to visualize the nuclei. FIG. 13, bottom panel, illustrates the effect of LMB treatment on TORC1 localization in ATYBI cells transfected with flag-tagged TORC1 expression vector. TORC1 localization was followed using anti-flag antiserum. DAP1 staining is shown alongside. […]"}, "TORC2 [4]": {"test_system": "TORC2", "assay": "TORC2 localization, Ser171 phosphorylation and promoter recruitment in liver after IP injection", "type": "in vivo", "details": "mice"}, "CREB": {"test_system": "CREB", "assay": "CREB Ser133 phosphorylation in liver after IP injection (histochemical and Western blot)", "type": "in vivo", "details": "mice; intraperitoneal administration"}}}
{"compound": "C=CC[C@@H]1/C=C(\\C)C[C@H](C)C[C@H](OC)[C@H]2O[C@@](O)(C(=O)C(=O)N3CCCC[C@H]3C(=O)O[C@H](/C(C)=C/[C@@H]3CC[C@@H](O)[C@H](OC)C3)[C@H](C)[C@@H](O)CC1=O)[C@H](C)C[C@@H]2OC", "note": "[FK506]", "values": [{"measurement": "β cell failure and diabetes", "setting": "β cell", "value": "cause β cell failure and diabetes with high frequency"}]}
{"compound": "C[C@@H]1C[C@@H]([C@H](O)CC2CC(=O)NC(=O)C2)C(=O)[C@@H](C)C1", "note": "[cycloheximide]", "values": [{"measurement": "potentiation of gluconeogenic gene expression", "setting": "[1]", "value": "2-3 fold"}, {"measurement": "effect on TORC2 Ser171 phosphorylation by glucagon at 3 hours", "setting": "TORC2 [2]; CHX pre-treatment 10 μg/ml", "value": "blocked phosphorylation of TORC2 at Ser171"}]}
{"compound": "O=C[C@H](O)[C@@H](O)[C@H](O)[C@H](O)CO", "note": "[glucose]", "values": [{"measurement": "induction of NR4A2 expression", "setting": "CREB target gene NR4A2; high glucose (20 mM)", "value": 5, "unit": "fold"}]}
{"compound": "CCC(=C/[C@H](C)C/C=C/C(C)=C/[C@@H](C)C(=O)[C@@H](C)[C@H](O)[C@@H](C)C/C(C)=C/C(=O)O)/C=C/[C@@H]1OC(=O)C=C[C@@H]1C", "note": "[leptomycin B]", "values": [{"measurement": "time to nuclear accumulation of TORC", "setting": "TORC2 [3]", "value": "30 to 60", "unit": "min"}, {"measurement": "nuclear accumulation of TORC", "setting": "TORC2 [3]; forskolin 10 μM or LMB 10 ng/ml", "value": "strongly enhanced nuclear accumulation"}]}
{"compound": "Exendin-4", "values": [{"measurement": "NR4A2 mRNA levels enhanced", "setting": "CREB target gene NR4A2; co-stimulation glucose (20 mM) plus exendin-4 (10 nM)", "value": 35, "unit": "fold"}]}
{"compound": "glucagon", "values": [{"measurement": "recruitment of TORC2 to gluconeogenic genes (ChIP of liver tissue)", "setting": "TORC2 [4]; 10 minutes after IP administration", "value": "promoted recruitment of TORC2 to gluconeogenic genes"}, {"measurement": "TORC2 phosphorylation at Ser171 in liver", "setting": "TORC2 [4]; IP administration", "value": "dephosphorylated"}, {"measurement": "nuclear translocation of hepatic TORC2", "setting": "TORC2 [4]; IP administration", "value": "induced translocation of TORC2 to liver nuclei"}, {"measurement": "time to translocation of TORC2 to liver nuclei", "setting": "TORC2 [4]; IP administration", "value": "≤ 10", "unit": "min"}, {"measurement": "CREB Ser133 phosphorylation in liver", "setting": "CREB", "value": "promote CREB Ser133 phosphorylation in liver"}, {"measurement": "time to CREB Ser133 phosphorylation in liver", "setting": "CREB", "value": "≤ 10", "unit": "min"}, {"measurement": "TORC2 phosphorylation at Ser171", "setting": "TORC2 [2]; 3 hours after stimulation", "value": "strongly induced"}]}
